Results: patent US20240239790A1, “7-Morpholino-1,6-Naphthyridin-5-yl Derivatives and Pharmaceutical Compositions Thereof Useful as DNA-PK Inhibitor” (adMare Therapeutics Society, priority 2021, published 2024)
Like-named read-outs stand apart in the source and are kept apart here.

What was measured:
[1] = molecular target: T1, DNA-PK (Homo sapiens, UniProt P78527); experiment: DNA-PK Assay for Biochemical Enzymatic Inhibition (ADP Glo Kinase assay); conditions: DNA-PK enzyme, Table 1
T1 construct: purchased Invitrogen PR9107A
Procedure, shortened: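 Human DNA-PK (25 ng) preincubated 15 min with compounds (ten three-fold dilutions) in HEPES pH 7.5, MgCl2, KCl, calf thymus DNA buffer, then substrate 434.4 μM and ATP 64.4 μM (final) for 60 min at room temperature. ADP-Glo luminescence; percent inhibition fitted by four-parameter regression for IC50.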

[2] = test system: pDNA-PK induction in HCT116 tumour spheroids; experiment: Multicellular tumour spheroid + radiation, pDNA-PK (ser2056) inhibition, immunohistochemical endpoint, HCT116; assay type: cell-based; conditions: Homo sapiens, 20 Gy, 20% O2
Procedure, shortened: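 HCT116 spheroids (~0.5 mm) in MEM/10% FBS, 20% O2, 37° C., pre-incubated 1 h with compound (10 or 5 μM down to 3.5 nM), irradiated 20 Gy, then 2 h further with compound. Cryosections immunostained for pDNA-PK ser2056; EC50 is concentration halving radiation-induced pDNA-PK.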

[3] = molecular target: T2, DNA-PK phosphorylation at Serine 2056 (Homo sapiens, UniProt P78527); experiment: Cellular Assay for Inhibition of DNA-PK Phosphorylation at Serine 2056 in FaDu cells (sandwich ELISA, neocarzinostatin); assay type: cell-based; conditions: pSer2056 DNA-PK, neocarzinostatin 1 μg/mL, Table 1
T2 construct: FaDu cells were purchased from ATCC; host or cells: FaDu
Procedure, shortened: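 pSer2056 and total DNA-PK were measured by sandwich ELISA in BCA-normalised FaDu lysates. Cells had 1 h compound exposure (0.3% DMSO), then 2 h with 1 μg/mL final neocarzinostatin. IC50 was fitted (variable slope) to % inhibition scaled against NCS-stimulated and DMSO-only controls.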

[4] = Microsomal Stability Assay, mouse liver microsomes; assay type: in vitro ADME; conditions: for microsomal CLint at 0.1 uM: male, CD-1, pH 7.4, mouse liver microsomes 0.1 mg/mL, 0.1 uM compound; for Microsomal Stability Mouse % rem. 60 min: mouse liver microsomes
Experimental: Samples were then mixed and centrifuged. Supernatants were used for HPLC-MS/MS analysis. […] Peak areas corresponding to the test compound were recorded.

[5] = test system: pDNA-PK induction in FaDU tumour spheroids; experiment: Multicellular tumour spheroid + radiation, pDNA-PK (ser2056) inhibition, immunohistochemical endpoint, FaDU; assay type: cell-based; conditions: Homo sapiens, 20 Gy
Experimental: Multicellular tumour spheroids determination of compound inhibition of pDNA-PK induction following radiation. Tumour spheroids were grown to approximately 0.5 mm in diameter and irradiated with 20 Gy in combination with inhibitor test compounds to determine their potency. Inhibitor concentration for 50% reduction in pDNA-PK induction (IC50) was determined via immunohistochemical staining in spheroid cryosections taken 2 hours following radiation. For cell survival endpoint 8 Gy radiation was used and 3 hours following radiation spheroids were dissociated, counted and plated for colony forming endpoint.
Spheroid+radiation pDNA-PK. Radiation: 20 Gy. Drug: serial dilution 5 or 10 μM down to 3.5 nM (11 wells). Spheroids: 3-6 spheroids per well (300-500 μm diameter). 20% 02 and 5% CO2. 96 well plate format. Endpoint: fluorescent immunostain pDNA-PK ser2056 and image on microscope. Analysis: determine EC50 concentrations that decreases pDNA-PK induction by 50% after irradiation.
Multicellular tumour spheroids were used to determine potency of test compounds in a 3D tissue environment using inhibition of pDNA-PK induction following radiation or cell survival as the endpoint. For the pDNA-PK endpoint HCT116 or FaDU tumour spheroids were grown to approximately 0.5 mm in diameter and irradiated with 20 Gy in combination with inhibitor test compounds to determine their potency. Experiments were carried out in 96 well plates containing 0.7 mls of MEM media containing 10% FBS and 10 mM glucose under 20% O2 & 5% CO2 at 37° C. Following dilution of compounds 1:1000 from DMSO stocks, compounds were serially diluted from 10 μM down to 3.5 nM and 5-10 spheroids added. 96 well plates were constantly stirred to avoid spheroids settling during the course of the experiment. The inhibitor concentration for 50% reduction in pDNA-PK induction (EC50) was determined via immunohistochemical staining in spheroid cryosections taken 2 hours following radiation using anti-pDNA-PK (ser 2056) and fixed immediately in formalin following sectioning. For cell survival endpoint 8 Gy radiation was used and, 3 hours following radiation, spheroids were dissociated, counted and plated for colony forming endpoint. Data presented in the table compound potency as EC50 [μM].

[6] = HCT-116, 2 h, spheroids, Example 8, read-out: Cell line: HCT116 Immunohistochemical endpoint pDNA-PK inhibition EC50
[7] = HCT-116, 2 hours following radiation, Example 9 Study 2, read-out: Spheroid Cell line: HCT116 Immunohistochemical endpoint pDNA-PK inhibition EC50
[8] = HCT-116, Spheroid, Cell Line: HCT115 (so in the source), 2 hours following radiation, Example 7, read-out: EC50, Immunohistochemical endpoint, pDNA-PK inhibition
[9] = 2 hours following radiation, 20% O2, Example 9 Study 2, read-out: Spheroid Cell line: FaDU Immunohistochemical endpoint pDNA-PK inhibition EC50
[10] = 2 h, spheroids, 20% O2, Example 8, read-out: Cell line: FaDU Immunohistochemical endpoint pDNA-PK inhibition EC50

SMILES	IC50 [1] [nM]	EC50 [2, 6] [nM]	EC50 [2, 7] [nM]	EC50 [2, 8] [nM]	IC50 [3] [nM]	microsomal CLint at 0.1 uM [4] [µL/min/mg]	Microsomal Stability Mouse % rem. 60 min [4]	EC50 [5, 9] [nM]	EC50 [5, 10] [nM]
O=C(Nc1ccncc1)[C@H]1CC[C@@H](Oc2nc(N3CCOCC3)cc3ncccc23)CC1 [Compound 154e, (1S,4S)-4-((7-morpholino-1,6-naphthyridin-5-yl)oxy)-N-(pyridin-4-yl)cyclohexane-1-carboxamide]	1 to 10	1000 to 10000	1000 to 10000	1000 to 10000	100 to 1000	> 116	E (% remaining = 0-25%)	500 to 1000	500 to 1000
CN(C)C(=O)COc1cnc(N[C@H]2CC[C@@H](Oc3nc(N4CCOCC4)cc4ncc(Br)cc34)CC2)nc1 [Compound 178, 2-((2-(((1s,4s)-4-((3-bromo-7-morpholino-1,6-naphthyridin-5-yl)oxy)cyclohexyl)amino)pyrimidin-5-yl)oxy)-N,N-dimethylacetamide]	< 0.5	500 to 1000	500 to 1000	500 to 1000	100 to 1000			1000 to 10000	1000 to 10000
O=C(O)c1cnc2cc(N3CCOCC3)nc(O[C@H]3CC[C@@H](Nc4ncccn4)CC3)c2c1 [Compound 183, 7-morpholino-5-(((1s,4s)-4-(pyrimidin-2-ylamino)cyclohexyl)oxy)-1,6-naphthyridine-3-carboxylic acid]	< 0.5	1000 to 10000	1000 to 10000	1000 to 10000	1000 to 10000	< 116	H (% remaining = 75-100%)	1000 to 10000	1000 to 10000
